Assays:
[1] = Peptide stability in solution; format: physicochemical
Procedure: Both peptides were dissolved in H2O and kept at room temperature. The peptide concentration was determined for the indicated time points.

[2] = test system: RPE1 cells; assay: Senescent vs ctrl human RPE1 cells; format: cell-based; details: vs FOXO4-DRI (CL03001) within one experiment
Procedure: Human IMR90, WI38 and RPE cells were grown in Dulbecco's Modified Eagle's Medium (DMEM; Lonza) containing 10% FCS and 1% pen/strep at 37° C. with 3.0% 02 and 5.0% CO2. To induce senescence, cells were irradiated with 10Gy ionizing radiation (Gammacell 1000) and were left for a minimum of 10 days to become senescent.
To perform viability and apoptosis assays, cells were split into 96-well plates and treated with peptides 2 days later. Non-senescent and cancer cells were plated 1500 cells/well, while senescent cells were plated at 8.000 cells/well.

[3] = test system: WT colon and tumor progression (TPO) organoids; assay: Cell viability of WT colon and tumor progression (TPO) organoids; format: cell-based; details: increasing concentrations, measured 5 days later
Procedure: (§1) Organoids were grown at 37° C. and 5% CO2 in a humidified incubator. All organoids were cultured in matrigel (Corning) droplets in advanced DMEM/F12 (Lonza) supplemented with 1% glutamax, 1% Penicillin/Streptomycin, 1% (10 mM) HEPES, 10% Noggin conditioned medium, 2% B-27 (50×; (Thermo/Life Technologies), N-acetylcysteine ((Sigma-Aldrich, 1.25 mM)), A83-01 (Tocris, 500 nM) and SB203580 (Invitrogen/Life Technologies, 3 μM). To perform viability and apoptosis assays, the organoids were passaged through resuspension in ice-cold medium, followed by centrifugation in 15 ml tubes at 4° C. The resulting pellet was trypsinized for 5 minutes at 37° C. to obtain single cells and subsequently washed twice with advanced DMEM/F12 media. These cells were then resuspended in Matrigel and plated in 96-well plates in 5 ul droplets. 100 ul fresh medium was added to the wells 15 minutes later. Peptide and chemotherapy treatment was added to the organoids 2 days after plating.

[4] = test system: CRC29 colorectal cancer organoids; assay: Apoptosis and viability in patient-derived colorectal cancer organoid line CRC29; format: cell-based, Human
Procedure: as §1
A Live/dead assay was performed on both larger organoids 3 days after peptide and/or chemotherapy treatment, or on organoids that were treated as single cells and allowed to grow out for 2 weeks before the assay was performed. […] The organoids were then imaged on a Zeiss Cell Observer microscope and the signal was quantified using FIJI. […]

[5] = Grey hair in naturally aged mice; format: in vivo; details: 24-month old C57BL/6J mice, 3 doses i.v., 4 weeks after first treatment, vs PBS
From the text: 24-month old C57BL/6J mice were photographed before receiving 3 doses of either PBS or CL04183 (SEQ ID NO: 55) through i.v. injection. 4 weeks after the first treatment the mice were photographed again.

[6] = test system: CRC29 colorectal cancer organoid line; assay: Bioluminescence of luciferase-expressing CRC29 transplanted in the caecum of immunodeficient mice; format: in vivo; details: 3 doses, imaged two days after last dose, vs PBS
Procedure: (§2) Mouse experiments were performed after approval from the Dutch animal ethics committee. For these experiments male NOD.Cg-Prkdc^scid Il2rg^tmlWjl/SzJ/J mice (Charles River) were employed. Human CRC29 colorectal cancer organoids containing firefly luciferase were implanted into the caecum, resulting in the formation of a primary tumor at this site. The implantation was performed under ketamine and dexmedetomidine anaesthesia. In addition, the animals received carpofen 30 min before surgery and the day after. 14 days after transplantation, the mice were sedated using isoflurane and imaged under the BioSpace Imager. Subsequently, The animals were treated with either PBS or with ′5-Fluorouracil (5-FU) at a dose of 50 mg/kg via i.p. injection. The first dose of CL04183 (2.5 mg/kg) was administered via i.v. injection 1 week after 5-FU treatment and this treatment was repeated 2 and 4 days later. 4 weeks after transplantation, the mice were imaged again to determine treatment effect and subsequently sacrificed. All organs were harvested and imaged under the BioSpace Imager again and the luciferase signal was quantified using the M3 vision software.

[7] = test system: CRC29 colorectal cancer organoid line; assay: CRC29 metastasis in liver and lung, human nucleoli staining; format: in vivo, mice; details: 3 doses, vs PBS
Procedure: as §2
Liver and lung paraffin sections were rehydrated in decreasing concentrations of ethanol before being washed in TBS and boiled for 20 minutes in 10 mM sodium citrate buffer (PH6) for antigen unmasking. […]

[8] = test system: CRC29 lung metastases; assay: TUNEL assay on CRC29 lung metastases; format: in vivo, mice; details: vs PBS
Procedure: as §2
A TUNEL assay was performed on lung metastases to determine apoptosis induction after treatment. […] Images were acquired using a LSM880 confocal microscope (Zeiss) and the percentage of TUNEL-positive cells was analysed using FIJI.

[9] = test system: triple negative breast cancer lines; assay: MTS cell viability in human breast cancer cell lines; format: cell-based; details: increasing concentrations, 2 days
[10] = test system: NRAS mutated and BRAF mutated melanoma; assay: Efficacy against melanoma; format: cell-based

## AKIEAAILDAFSQNWRKRRRRQRRKKRG [CL04183]
[1]
  stability in solution: superior stability
[2]
  selectivity and potency in senescent vs ctrl cells: superior selectivity and potency
[3]
  cell viability, sensitivity of organoids with colorectal cancer associated mutations: sensitizes to FOXO4-based peptides, dependent on p53
[4]
  apoptosis induction: potently induces apoptosis
[5]
  grey hair: reduces grey hair
[6]
  luciferase-expressing colorectal cancer cells (bioluminescence): reduces luciferase-expressing colorectal cancer cells in vivo
[7]
  colorectal cancer metastasis in liver and lung: reduces colorectal cancer metastasis in liver and lung
[8]
  apoptosis in metastatic cancer cells (TUNEL positive cancer cells): induces apoptosis in metastatic cancer cells in vivo
[9]
  sensitivity of breast cancer cell lines (cell viability, MTS): correlating with CL04183 (SEQ ID NO: 55) sensitivity
[10]
  efficacy against melanoma: efficacy against NRAS mutated and BRAF mutated melanoma
